30 molecules from patent US9365541B2, “Compounds for use in the treatment of parasitic diseases” (IRBM—SCIENCE PARK S.P.A., priority 2012, dated 2016) can be followed below.

One test concerns the target T1, human HDAC1 (Homo sapiens, UniProt Q13547).
T1 construct: made in house; host or cells: HeLa (ATCC CCL-2), mammalian cells
Kind of test: Homo sapiens HDAC1 inhibition assay (Fluor-de-Lys, enzymatic). Particulars: human HDAC enzymatic assay; read-out: hHDAC IC50. Type of test: biochemical. In short, it runs like this: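 Product developed with trypsin developer containing 2 μM TSA to stop the reaction; fluorescence measures deacetylase activity, inversely related to inhibition.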

In test [1] the test system is Plasmodium falciparum 3D7. The test is described as follows: P. falciparum growth inhibition assay (Pf-LDH). Particulars: Plasmodium falciparum, Erythrocyte; P. falciparum 3D7 infected erythrocytes, 72 h incubation, PfLDH readout. Format: cell-based. In short, it runs like this: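 P. falciparum 3D7 (chloroquine-sensitive) at 0.25% parasitemia and 2% hematocrit was incubated with compound for 72 h at 37° C under 4% CO2/3% O2/93% N2. After freeze-thaw, PfLDH activity was read at 650 nm with lactate/APAD/NBT/diaphorase mix (pH 8.0).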

Molecules are shown by their SMILES. Bounds are passed on as bounds.

T1 sequence (Q13547 whole entry): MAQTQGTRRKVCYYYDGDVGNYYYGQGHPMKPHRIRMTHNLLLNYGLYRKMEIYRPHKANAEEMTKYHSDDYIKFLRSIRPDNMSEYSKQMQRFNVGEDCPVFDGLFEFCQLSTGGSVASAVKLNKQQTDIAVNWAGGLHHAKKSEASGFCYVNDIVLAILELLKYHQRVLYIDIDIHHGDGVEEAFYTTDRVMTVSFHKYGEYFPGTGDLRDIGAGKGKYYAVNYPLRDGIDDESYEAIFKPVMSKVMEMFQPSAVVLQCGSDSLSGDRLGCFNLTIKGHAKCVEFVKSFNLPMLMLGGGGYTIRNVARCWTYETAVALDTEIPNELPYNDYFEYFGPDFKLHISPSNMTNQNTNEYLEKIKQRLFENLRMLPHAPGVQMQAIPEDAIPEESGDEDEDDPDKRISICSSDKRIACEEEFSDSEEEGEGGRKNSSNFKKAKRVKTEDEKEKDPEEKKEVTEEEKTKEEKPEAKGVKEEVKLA

For `CNC(=O)CCCCC[C@H](NC(=O)C1CC(=O)Nc2ccccc21)c1ncc(-c2ccc(-n3cccn3)cc2)[nH]1` (stereo partly drawn) [Entry 61, N-((S)-1-(5-(4-(1H-pyrazol-1-yl)phenyl)-1H-imidazol-2-yl)-7-(methylamino)-7-oxoheptyl)-2-oxo-1,2,3,4-tetrahydroquinoline-4-carboxamide], at human HDAC1, the half-inhibitory concentration (IC50) was 1000 to 5000 nM. The molecule also came in with an EC50 in test [1] of 1 to 5 µM.
As to `CNC(=O)CCCCC[C@H](NC(=O)Cn1ccnn1)c1ncc(-c2ccc(-n3cccn3)cc2)[nH]1` [Entry 62, (S)-7-(2-(1H-1,2,3-triazol-1-yl)acetamido)-7-(5-(4-(1H-pyrazol-1-yl)phenyl)-1H-imidazol-2-yl)-N-methylheptanamide], the IC50 on human HDAC1 was greater than 5000 nM. In test [1], this molecule displayed an EC50 greater than 5 µM.
On the same counts, the results for `CNC(=O)CCCCC[C@H](NC(=O)Cc1nc(-c2ccccc2)cs1)c1ncc(-c2ccc3ccccc3c2)[nH]1` [Entry 63] are 1000 to 5000 nM and 1 to 5 µM.
Regarding `CNC(=O)CCCCC[C@H](NC(=O)c1cccc(N2CCOCC2)c1)c1ncc(-c2ccc3ccccc3c2)[nH]1` [Entry 64, (S)-N-(7-(methylamino)-1-(5-(naphthalen-2-yl)-1H-imidazol-2-yl)-7-oxoheptyl)-3-morpholino-benzamide], at human HDAC1, the half-inhibitory concentration (IC50) was greater than 5000 nM. The molecule further displayed a concentration for a half-maximal effect (EC50) in test [1] of 1 to 5 µM.
Take `CNC(=O)CCCCC[C@H](NC(=O)c1cnc(CN2CCCC2)s1)c1ncc(-c2ccc3ccncc3c2)[nH]1` [Entry 65, (S)-N-(1-(5-(isoquinolin-7-yl)-1H-imidazol-2-yl)-7-(methylamino)-7-oxoheptyl)-2-(pyrrolidin-1-ylmethyl)thiazole-5-carboxamide]: the half-inhibitory concentration (IC50) on human HDAC1 was less than 1000 nM. The molecule also showed a half-maximal effective concentration (EC50) in test [1] of less than 1 µM.
As to `CNC(=O)CCCCC[C@H](NC(=O)CN1CCCC1)c1ncc(-c2ccc3ccncc3c2)[nH]1` [Entry 66], at human HDAC1, the IC50 fell in the range of 1000 to 5000 nM. Further, the concentration for a half-maximal effect (EC50) in test [1] is greater than 5 µM.
Taken in the same sequence, the figures for `CNC(=O)CCCCC[C@H](NC(=O)c1ccns1)c1ncc(-c2ccc3ccncc3c2)[nH]1` [Entry 67] were less than 1000 nM and less than 1 µM.
For `CNC(=O)CCCCC[C@H](NC(=O)Cc1nc(C)cs1)c1ncc(-c2ccc3ccncc3c2)[nH]1` [Entry 68], the concentration for half-maximal inhibition (IC50) at human HDAC1 lay in the range of 1000 to 5000 nM. The molecule further registered an EC50 in test [1] greater than 5 µM.
Taken in the same sequence, the figures for `CNC(=O)CCCCC[C@H](NC(=O)Cn1ccnn1)c1ncc(-c2ccc(-c3ccn(C)n3)cc2)[nH]1` [Entry 69, (S)-7-(2-(1H-1,2,3-triazol-1-yl)acetamido)-N-methyl-7-(5-(4-(1-methyl-1H-pyrazol-3-yl)phenyl)-1H-imidazol-2-yl)heptanamide] were greater than 5000 nM and greater than 5 µM.
As to `COc1ccc2[nH]c(C)c(CC(=O)N[C@@H](CCCCCC(N)=O)c3nnc(-c4ccc5ccccc5c4)[nH]3)c2c1` [Entry 70, (S)-7-(2-(5-methoxy-2-methyl-1H-indol-3-yl)acetamido)-7-(5-(naphthalen-2-yl)-4H-1,2,4-triazol-3-yl)heptanamide], the IC50 at human HDAC1 was less than 1000 nM. The molecule also had a concentration for a half-maximal effect (EC50) in test [1] of less than 1 µM.
On to `CNC(=O)CCCCC[C@H](NC(=O)C1CN(C)C1)c1ncc(-c2cc3ccccc3nc2OC)o1` [Entry 71, (S)-N-(1-(5-(2-methoxyquinolin-3-yl)oxazol-2-yl)-7-(methylamino)-7-oxoheptyl)-1-methylazetidine-3-carboxamide], for which the IC50 on human HDAC1 was less than 1000 nM. The same molecule had a concentration giving a half-maximal response (EC50) in test [1] of less than 1 µM.
Regarding `CNC(=O)CCCCC[C@H](NC(=O)OCc1ccccc1)c1ncc(-c2ccc3ccccc3c2)[nH]1` [Entry 72, (S)-benzyl (7-(methylamino)-1-(5-(naphthalen-2-yl)-1H-imidazol-2-yl)-7-oxo-heptyl)carbamate], the half-inhibitory concentration (IC50) at human HDAC1 is less than 1000 nM. Besides, the concentration for a half-maximal effect (EC50) in test [1] is 1 to 5 µM.
Taken in the same sequence, the figures for `CNC(=O)CCCCC[C@H](NC(=O)c1cc2cc(OC)ccc2[nH]1)c1ncc(-c2ccc3ccccc3c2)[nH]1` [Entry 73, (S)-5-methoxy-N-(7-(methylamino)-1-(5-(naphthalen-2-yl)-1H-imidazol-2-yl)-7-oxoheptyl)-1H-indole-2-carboxamide] were 1000 to 5000 nM and 1 to 5 µM.
On the same counts, the results for `CNC(=O)CCCCC[C@H](NC(=O)Cn1c(=O)oc2ccccc21)c1ncc(-c2ccc3ccccc3c2)[nH]1` [Entry 74] are less than 1000 nM and 1 to 5 µM.
On the same counts, the results for `CNC(=O)CCCCC[C@H](NC(=O)Cc1c(C)[nH]c2ccc(OC)cc12)c1ncc(-c2ccc3ccccc3c2)[nH]1` [Entry 75, (S)-7-(2-(5-methoxy-2-methyl-1H-indol-3-yl)acetamido)-N-methyl-7-(5-(naphthalen-2-yl)-1H-imidazol-2-yl)heptanamide] are less than 1000 nM and less than 1 µM.
Consider `CNC(=O)CCCCC[C@H](NC(=O)Cc1cnccn1)c1ncc(-c2cc3ccccc3nc2OC)[nH]1` [Entry 76], for which, on human HDAC1, the IC50 lay within 1000 to 5000 nM. In test [1], this molecule came in with an EC50 of 1 to 5 µM.
On the same counts, the results for `CNC(=O)CCCCC[C@H](NC(=O)c1nnc(C)o1)c1ncc(-c2cc3ccccc3nc2OC)[nH]1` [Entry 77, (S)-N-(1-(5-(2-methoxyquinolin-3-yl)-1H-imidazol-2-yl)-7-(methylamino)-7-oxoheptyl)-5-methyl-1,3,4-oxadiazole-2-carboxamide] are 1000 to 5000 nM and 1 to 5 µM.
On the same counts, the results for `CNC(=O)CCCCC[C@H](NC(=O)c1cncs1)c1ncc(-c2ccc(CN(C)C)cc2)[nH]1` [Entry 78, (S)-N-(1-(5-(4-((dimethyl-amino)methyl)phenyl)-1H-imidazol-2-yl)-7-(methylamino)-7-oxoheptyl)thiazole-5-carboxamide] are 1000 to 5000 nM and greater than 5 µM.
As to `CNC(=O)CCCCC[C@H](NC(=O)c1cncs1)c1ncc(-c2cccc3c2OCCO3)[nH]1` [Entry 79], the IC50 at human HDAC1 lay in the range of 1000 to 5000 nM. In test [1], this molecule gave an EC50 greater than 5 µM.
Taken in the same sequence, the figures for `CNC(=O)CCCCC[C@H](NC(=O)c1cncs1)c1ncc(-c2cc3ccccc3nc2Cl)[nH]1` [Entry 80, (S)-N-(1-(5-(2-chloroquinolin-3-yl)-1H-imidazol-2-yl)-7-(methylamino)-7-oxoheptyl)thiazole-5-carboxamide] were 1000 to 5000 nM and 1 to 5 µM.
On the same counts, the results for `CNC(=O)CCCCC[C@H](NC(=O)c1cncs1)c1ncc(-c2ccc(-n3nc(C)cc3C)cc2)[nH]1` [Entry 81, (S)-N-(1-(5-(4-(3,5-dimethyl-1H-pyrazol-1-yl)phenyl)-1H-imidazol-2-yl)-7-(methylamino)-7-oxoheptyl)thiazole-5-carboxamide] are greater than 5000 nM and greater than 5 µM.
`CNC(=O)CCCCC[C@H](NC(=O)c1cc(C)n(-c2ccccc2)n1)c1ncc(-c2ccc3ccccc3c2)[nH]1` [Entry 82, (S)-5-methyl-N-(7-(methylamino)-1-(5-(naphthalen-2-yl)-1H-imidazol-2-yl)-7-oxoheptyl)-1-phenyl-1H-pyrazole-3-carboxamide]: the half-inhibitory concentration (IC50) at human HDAC1 is greater than 5000 nM. Besides, the half-maximal effective concentration (EC50) in test [1] is greater than 5 µM.
Consider `CNC(=O)CCCCC[C@H](NC(=O)c1ccc(-n2cccc2)nc1)c1ncc(-c2ccc3ccccc3c2)[nH]1` [Entry 83, (S)-N-(7-(methylamino)-1-(5-(naphthalen-2-yl)-1H-imidazol-2-yl)-7-oxoheptyl)-6-(1H-pyrrol-1-yl)nicotinamide], for which the IC50 on human HDAC1 fell in the range of 1000 to 5000 nM. This molecule also yielded an EC50 in test [1] of 1 to 5 µM.
Turning to `CNC(=O)CCCCC[C@H](NC(=O)c1nnc(C)s1)c1ncc(-c2ccc3ccccc3c2)[nH]1` [Entry 84, (S)-5-methyl-N-(7-(methylamino)-1-(5-(naphthalen-2-yl)-1H-imidazol-2-yl)-7-oxoheptyl)-1,3,4-thiadiazole-2-carboxamide], the IC50 at human HDAC1 fell in the range of 1000 to 5000 nM. Further, the EC50 in test [1] is greater than 5 µM.
Consider `CNC(=O)CCCCC[C@H](NC(=O)C(C)n1cccn1)c1ncc(-c2ccc3ccccc3c2)[nH]1` (stereo partly drawn) [Entry 85, (7S)-7-(2-(1H-pyrazol-1-yl)propanamido)-N-methyl-7-(5-(naphthalen-2-yl)-1H-imidazol-2-yl)heptanamide], for which, at human HDAC1, the IC50 lay in the range of 1000 to 5000 nM. The same molecule gave a 50% effective concentration (EC50) in test [1] of 1 to 5 µM.
With `CNC(=O)CCCCC[C@H](NC(=O)c1cc(-c2ccco2)n[nH]1)c1ncc(-c2ccc3ccccc3c2)[nH]1` [Entry 86, (S)-3-(furan-2-yl)-N-(7-(methylamino)-1-(5-(naphthalen-2-yl)-1H-imidazol-2-yl)-7-oxoheptyl)-1H-pyrazole-5-carboxamide], on human HDAC1, the IC50 was 1000 to 5000 nM. This molecule yielded an EC50 in test [1] of 1 to 5 µM.
On the same counts, the results for `CNC(=O)CCCCC[C@H](NC(=O)c1ccccc1-n1cnnn1)c1ncc(-c2ccc3ccccc3c2)[nH]1` [Entry 87, (S)-N-(7-(methylamino)-1-(5-(naphthalen-2-yl)-1H-imidazol-2-yl)-7-oxoheptyl)-2-(1H-tetrazol-1-yl)benzamide] are 1000 to 5000 nM and 1 to 5 µM.
As to `CNC(=O)CCCCC[C@H](NC(=O)c1cccc2nccnc12)c1ncc(-c2ccc3ccccc3c2)[nH]1` [Entry 88, (S)-N-(7-(methylamino)-1-(5-(naphthalen-2-yl)-1H-imidazol-2-yl)-7-oxo-heptyl)quinoxaline-5-carboxamide], on human HDAC1, the IC50 is greater than 5000 nM. This molecule also registered a 50% effective concentration (EC50) in test [1] greater than 5 µM.
On the same counts, the results for `CNC(=O)CCCCC[C@H](NC(=O)Cn1cncn1)c1ncc(-c2ccc3ccncc3c2)[nH]1` [Entry 89, (S)-7-(2-(1H-1,2,4-triazol-1-yl)acetamido)-7-(5-(isoquinolin-7-yl)-1H-imidazol-2-yl)-N-methylheptanamide] are 1000 to 5000 nM and 1 to 5 µM.
Taken in the same sequence, the figures for `CNC(=O)CCCCC[C@H](NC(=O)c1cnn(C(C)C)c1)c1ncc(-c2ccc3ccncc3c2)[nH]1` [Entry 90, (S)-1-isopropyl-N-(1-(5-(isoquinolin-7-yl)-1H-imidazol-2-yl)-7-(methylamino)-7-oxoheptyl)-1H-pyrazole-4-carboxamide] were less than 1000 nM and less than 1 µM.
